Test [1] deals with T1, γ-secretase (Homo sapiens, UniProt P49768).
T1 construct: endogenous in cells; host or cells: SKNBE2 human neuroblastoma cells (carrying hAPP 695 wild type as substrate)
The test is described as follows: Screening for γ-secretase-modulating activity: Aβ42 in supernatant of SKNBE2 cells carrying hAPP 695 wild type (Alphalisa). The class given is cell-based. To be noted: SKNBE2 human neuroblastoma cells carrying hAPP 695 wild type, overnight incubation, Aβ42 in cell supernatant. The protocol: (§1) Screening was carried out using SKNBE2 human neuroblastoma cells carrying the hAPP 695—wild type, grown in Dulbecco's Modified Eagle's Medium/Nutrient mixture F-12 (DMEM/NUT-mix F-12) (HAM) provided by Invitrogen (cat no. 10371-029) containing 5% Serum/Fe supplemented with 1% non-essential amino acids, 1-glutamine 2 mM, Hepes 15 mM, penicillin 50 U/ml (units/ml) en streptomycin 50 μg/ml. Cells were grown to near confluency.
(§2) The screening was performed using a modification of the assay as described in Citron et al (1997) Nature Medicine 3: 67. Briefly, cells were plated in a 384-well plate at 10^4 cells/well in Ultraculture (Lonza, BE12-725F) supplemented with 1% glutamine (Invitrogen, 25030-024), 1% non-essential amino acid (NEAA), penicillin 50 U/ml en streptomycin 50 μg/ml in the presence of test compound at different test concentrations. The cell/compound mixture was incubated overnight at 37° C., 5% CO2. The next day the media were assayed by two sandwich immuno-assays, for Aβ42 and Aβ total.
(§3) Aβtotal and Aβ42 concentrations were quantified in the cell supernatant using the Aphalisa technology (Perkin Elmer). Alphalisa is a sandwich assay using biotinylated antibody attached to streptavidin coated donorbeads and antibody conjugated to acceptor beads. In the presence of antigen, the beads come into close proximity. The excitation of the donor beads provokes the release of singlet oxygen molecules that trigger a cascade of energy transfer in the acceptor beads, resulting in light emission. To quantify the amount of Aβ42 in the cell supernatant, monoclonal antibody specific to the C-terminus of Aβ42 (JRF/cAβ42/26) was coupled to the receptor beads and biotinylated antibody specific to the N-terminus of Aβ (JRF/AβN/25) was used to react with the donor beads. To quantify the amount of Aβtotal in the cell supernatant, monoclonal antibody specific to the N-terminus of Aβ (JRF/AβN/25) was coupled to the receptor beads and biotinylated antibody specific to the mid region of Aβ (biotinylated 4G8) was used to react with the donor beads.
(§4) To obtain the values reported in Table 3, the data are calculated as percentage of the maximum amount of amyloid Beta 42 measured in the absence of the test compound. The sigmoidal dose response curves were analyzed using non-linear regression analysis with percentage of the control plotted against the log concentration of the compound. A 4-parameter equation was used to determine the IC50.

Test [2] concerns the target T1, γ-secretase. Briefly: Screening for γ-secretase-modulating activity: Aβtotal in supernatant of SKNBE2 cells carrying hAPP 695 wild type (Alphalisa). It counts as cell-based. The following applies: SKNBE2 human neuroblastoma cells carrying hAPP 695 wild type, overnight incubation, Aβtotal in cell supernatant. As for the experimental part: as §1, §2, §3, §4
A general note: Bead proximity is the source of the signal in Alpha formats.

Drawing on patent US20150141411A1, “SUBSTITUTED 3,4-DIHYDRO-2H-PYRIDO[1,2-A]PYRAZINE-1,6-DIONE DERIVATIVES USEFUL FOR THE TREATMENT OF (INTER ALIA) ALZHEIMER'S DISEASE” (Janssen Pharmaceuticals, Inc., priority 2012, published 2015), this text covers IC50 for 41 compounds.

Where only a bound is given, the exact number is not on record here.

Take `Cc1nccn1-c1ccc2n(c1=O)CCN(Cc1cccc(-c3ccccc3)c1)C2=O` [compound 108]: the IC50 (as a rule, the concentration that gives 50% inhibition) in test [1] is 4790 nM; in test [2], over 10000 nM.
The corresponding values for `CCCc1nccn1-c1ccc2n(c1=O)CCN(CCC1CC1)C2=O` [compound 16] are over 10000 nM and over 10000 nM.
The corresponding values for `Cc1cn(-c2ccc3n(c2=O)CCN(C(c2ccccc2)c2cc(C(F)(F)F)cc(C(F)(F)F)c2)C3=O)cn1` (racemic) [compound 52] are 980 nM and over 10000 nM.
Regarding `Cc1cn(-c2ccc3n(c2=O)C[C@@H](C)N(Cc2cc(N4CCC(C(F)(F)F)CC4)ccc2Cl)C3=O)cn1` [compound 81], the IC50 was 220 nM in test [1] and over 10000 nM in test [2].
`Cc1cn(-c2ccc3n(c2=O)C[C@@H](C)N(Cc2cc(C(F)(F)F)ccc2C)C3=O)cn1` [compound 72]: the IC50 in test [1] was 190 nM; in test [2] it was over 10000 nM.
The corresponding values for `COc1cc2c(cc1Cl)c(C(C)N1C(=O)c3ccc(-n4cnc(C)c4)c(=O)n3C[C@H]1C)cn2C` (single isomer, unassigned) [compound 256] are 40 nM and 4000 nM.
The corresponding values for `Cc1cn(-c2ccc3n(c2=O)CCC(C)N(Cc2cc(C(F)(F)F)cc(C(F)(F)F)c2)C3=O)cn1` (stereo not shown) [compound 123] are 190 nM and over 10000 nM.
For `Cc1cn(-c2ccc3n(c2=O)C[C@@H](C)N(Cc2cc(F)cc(OC(F)(F)F)c2)C3=O)cn1` [compound 139], in that order: 950 nM and over 10000 nM.
As to `Cc1cn(-c2ccc3n(c2=O)C[C@@H](C)N(CCc2cc(OC(C)C)cc(C(F)(F)F)c2)C3=O)cn1` [compound 156], the figures for the IC50 in test [1] and in test [2] were 30 nM and over 10000 nM, respectively.
Turning to `CCn1cc(C(C)N2C(=O)c3ccc(-n4cnc(C)c4)c(=O)n3CC2C)c2cc(C(F)(F)F)ccc21` (single isomer, unassigned) [compound 216], the IC50 in test [1] came to 120 nM; in test [2], 6460 nM.
The corresponding values for `Cc1cn(-c2ccc3n(c2=O)C[C@@H](C)N(Cc2c[nH]c4ccc(Cl)cc24)C3=O)cn1` [compound 138] are 40 nM and over 10000 nM.
For `Cc1cn(-c2ccc3n(c2=O)C[C@@H](C)N(Cc2ccc(C)c(OCC4CC4)c2)C3=O)cn1` [compound 162], in that order: 100 nM and over 10000 nM.
For `Cc1cn(-c2ccc3n(c2=O)CCN(C(c2cc(C(F)(F)F)cc(C(F)(F)F)c2)C2CCOCC2)C3=O)cn1` (stereo not shown) [compound 51], in that order: 500 nM and over 10000 nM.
On to `CCn1cc(C(C)N2C(=O)c3ccc(-n4cnc(C)c4)c(=O)n3CC2C)c2cc(Cl)c(F)cc21` (single isomer, unassigned) [compound 191], for which the IC50 in test [1] was 200 nM; in test [2], over 10000 nM.
The corresponding values for `Cc1cn(-c2ccc3n(c2=O)C[C@@H](C)N(Cc2cccc(OC(F)(F)F)c2)C3=O)cn1` [compound 79] are 280 nM and over 10000 nM.
With `Cc1cn(-c2ccc3n(c2=O)CCN(Cc2ccccc2)C3=O)cn1` [compound 19], the IC50 in test [1] is 6760 nM; in test [2], over 10000 nM.
The corresponding values for `Cc1cn(-c2ccc3n(c2=O)C[C@@H](C)N(Cc2ccc(C)c(-n4cccn4)c2)C3=O)cn1` [compound 114] are 1910 nM and over 10000 nM.
Turning to `CCn1cc(C(C)N2C(=O)c3ccc(-n4cnc(C)c4)c(=O)n3CC2C)c2cc(C(F)(F)F)ccc21` (single isomer, unassigned) [compound 217], the IC50 in test [1] came out at 3 nM; in test [2] it was 480 nM.
For `Cc1cn(-c2ccc3n(c2=O)C[C@@H](C)N(Cc2c[nH]c4c(C(F)(F)F)cc(F)cc24)C3=O)cn1` [compound 257], in that order: 40 nM and over 10000 nM.
For `CCn1cc(C(C)N2C(=O)c3ccc(-n4cnc(C)c4)c(=O)n3CC2C)c2cc(Cl)cc(F)c21` (single isomer, unassigned) [compound 220], in that order: 170 nM and 6030 nM.
`Cc1cn(-c2ccc3n(c2=O)C[C@@H](C)N(C(C)c2cc(C(F)(F)F)cc(C(F)(F)F)c2)C3=O)cn1` (mixture of isomers) [compound 154]: the IC50 in test [1] was 50 nM; in test [2], over 10000 nM.
For `Cc1cn(-c2ccc3n(c2=O)C[C@@H](C)N(Cc2cc(OC(C)C)c(Cl)cc2F)C3=O)cn1` [compound 163], in that order: 170 nM and over 10000 nM.
The corresponding values for `COc1cc(C(C)N2C(=O)c3ccc(-n4cnc(C)c4)c(=O)n3C[C@H]2C)cc(C(F)(F)F)c1` (single isomer, unassigned) [compound 148] are 140 nM and over 10000 nM.
For `Cc1cn(-c2ccc3n(c2=O)C[C@@H](C)N(Cc2cn(C)c4cc(C(F)(F)F)c(F)cc24)C3=O)cn1` [compound 258], the IC50 in test [1] worked out at 20 nM; in test [2], 9000 nM.
Regarding `Cc1cn(-c2ccc3n(c2=O)C[C@@H](C)N(C(C)c2cc(CC4CC4)cc(C(F)(F)F)c2)C3=O)cn1` (single isomer, unassigned) [compound 136], the IC50 was 40 nM in test [1] and over 10000 nM in test [2].
For `Cc1cn(-c2ccc3n(c2=O)CC(C)N(C(C)c2cn(C)c4ccc(C(F)(F)F)cc24)C3=O)cn1` (single isomer, unassigned) [compound 215], in that order: 10 nM and 1440 nM.
For `CCn1cc(C(C)N2C(=O)c3ccc(-n4cnc(C)c4)c(=O)n3C[C@H]2C)c2ccc(C(F)(F)F)cc21` (single isomer, unassigned) [compound 244], in that order: 370 nM and over 10000 nM.
The corresponding values for `Cc1cn(-c2ccc3n(c2=O)CC(C)N(C(C)c2c[nH]c4cc(F)c(Cl)cc24)C3=O)cn1` (single isomer, unassigned) [compound 188] are 10 nM and 4570 nM.
With `Cc1cn(-c2ccc3n(c2=O)C(C)C(C)N(Cc2cc(C(F)(F)F)cc(C(F)(F)F)c2)C3=O)cn1` (single isomer, unassigned) [14b], the IC50 is 650 nM in test [1] and over 10000 nM in test [2].
The corresponding values for `Cc1cn(-c2ccc3n(c2=O)CCN(Cc2cccc(Cl)c2F)C3=O)cn1` [compound 39] are 950 nM and over 10000 nM.
For `Cc1cn(-c2ccc3n(c2=O)CCN(C(C)c2c[nH]c4cc(F)c(Cl)cc24)C3=O)cn1` (single isomer, unassigned) [compound 184], in that order: 650 nM and 9120 nM.
Turning to `Cc1cn(-c2ccc3n(c2=O)CC(C)N(Cc2cn(-c4ccccc4)c4cc(Br)ccc24)C3=O)cn1` (stereo not shown) [compound 199], the results for the IC50 in test [1] and in test [2] were 20 nM and 9780 nM, respectively.
The corresponding values for `Cc1cn(-c2ccc3n(c2=O)C[C@@H](C)N(Cc2cn(C)c4cc(F)c(C5CC5)cc24)C3=O)cn1` [compound 174] are 10 nM and 5000 nM.
The corresponding values for `Cc1cn(-c2ccc3n(c2=O)CCN(Cc2nccc(OCC(F)(F)F)c2C)C3=O)cn1` [compound 98] are 2880 nM and over 10000 nM.
For `Cc1cn(-c2ccc3n(c2=O)C[C@@H](C)N(Cc2cccc(-n4nc(C)cc4C)c2)C3=O)cn1` [compound 83], in that order: 1350 nM and over 10000 nM.
For the compound `Cc1cn(-c2ccc3n(c2=O)C[C@@H](C)N(Cc2cn(C)c4c(F)cc(C(F)(F)F)cc24)C3=O)cn1` [compound 241], the IC50 in test [1] was 6 nM; in test [2], 4000 nM.
The corresponding values for `Cc1cn(-c2ccc3n(c2=O)C[C@@H](C)N(Cc2cc(N4CCCCC4)cc(C(F)(F)F)c2)C3=O)cn1` [compound 86] are 30 nM and over 10000 nM.
For `Cc1cn(-c2ccc3n(c2=O)CCN(CCc2c[nH]c4ccccc24)C3=O)cn1` [compound 104], in that order: over 10000 nM and over 10000 nM.
The corresponding values for `Cc1cn(-c2ccc3n(c2=O)C[C@@H](C)N(Cc2cn(C)c4ccc(Cl)cc24)C3=O)cn1` [compound 137] are 30 nM and over 10000 nM.
In the case of `Cc1cn(-c2ccc3n(c2=O)C[C@@H](C)N(Cc2cccc(Cl)c2)C3=O)cn1` [compound 24], the IC50 is 1100 nM in test [1] and over 10000 nM in test [2].
The corresponding values for `Cc1cn(-c2ccc3n(c2=O)CC(C)N(C2CCc4ccc(C(F)(F)F)cc42)C3=O)cn1` (stereo not shown) [compound 205] are 240 nM and over 10000 nM.
